Source: patent US8088819B2, “Derivatives of substituted 3-phenyl-1-(phenylthienyl)propan-1-ones and of 3-phenyl-1-(phenylfuranyl) propan-1-ones, preparation and use” (priority 2006, dated 2012)

Columns and labels:
[1] = tested on: ABCA1 gene in human macrophages (THP-1); test: Reverse cholesterol transport: expression of the ABCA1 gene in human macrophages; format: cell-based; conditions: 24 h
Protocol: The effect of the compounds according to the invention on reverse cholesterol transport was evaluated by measuring the expression of the ABCA1 gene (ATP-binding cassette, sub-family A, member 1; membrane transporter involved in the efflux of cholesterol) in human macrophages. The more the expression of ABCA1 is increased, the greater the stimulating action of the compound according to the invention on reverse cholesterol transport.
The THP1 human monocyte line (obtained from ATCC) is cultivated in RPMI1640 medium with addition of 25 mM Hepes (Gibco; 42401-018), 1% glutamine (Gibco; 25030-24), 1% penicillin/streptomycin (Biochrom AG; A 2213) and 10% decomplemented fetal calf serum (FCS. Gibco; 26050-088).
The cells are seeded on 24-well plates (Primaria BD Falcon) at a density of 3·10^5 cells/well and incubated at 37° C. and 5% CO2 for 72 h in the presence of 30 ng/ml of phorbol 12-myristate 13-acetate (PMA) in order to differentiate them to macrophages. […]
1 μg of total RNA (quantified based on the spectrophotometer reading) was then reverse-transcribed to complementary DNA by reaction for 1 hour at 37° C. in a total volume of 30 μl containing buffer 1× (Invitrogen), 1.5 mM of DTT, 0.18 mM of dNTPs (Promega), 200 ng of pdN6 (Amersham), 30 U of RNase inhibitor (Promega) and 1 μl of MMLV-RT (Invitrogen).
The quantitative PCR experiments were carried out using the MyiQ Single-Color Real-Time PCR Detection System (Biorad, Marnes-la-Coquette, France) and were performed using the iQ SYBR Green Supermix kit following the supplier's recommendations, in 96-well plates, on 5 μl of diluted reverse transcription reaction mixtures with a hybridization temperature of 60° C. […]
The amount of fluorescence emitted is directly proportional to the amount of complementary DNA present at the start of the reaction and amplified during PCR. […] The relative expression levels of each target are thus determined using the efficacy curves obtained with the points in the range. […]

hPPARdelta = target: T1, hPPARdelta (Homo sapiens, UniProt Q03181); test: PPAR activation: Gal4-hPPARδ chimera luciferase transactivation in COS-7 cells, Method 1; format: cell-based; conditions: COS-7, 24 h; for Emax: maximum percentage response relative to the reference GW501516, read-out: hPPARdelta % max
T1 construct: expressed in transfected cells; host or cells: COS-7 (monkey kidney fibroblasts)
T1 sequence (Q03181 211-439 limits assumed): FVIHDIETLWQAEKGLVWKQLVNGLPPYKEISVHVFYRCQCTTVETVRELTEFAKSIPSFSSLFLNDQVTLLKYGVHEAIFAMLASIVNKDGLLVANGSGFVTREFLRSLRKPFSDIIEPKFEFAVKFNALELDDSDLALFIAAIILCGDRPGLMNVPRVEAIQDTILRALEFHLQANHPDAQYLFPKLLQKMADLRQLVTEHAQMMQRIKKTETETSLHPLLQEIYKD
Method in brief: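 COS-7 cells transiently transfected with Gal4 DBD–human PPAR LBD (DEF domain) chimeras plus Gal4(RE)_TkpGL3 luciferase reporter (1/10 ratio). Compounds applied 24 h at 37 °C in serum-free medium at doses between 10^−5 and […]; luciferase read after lysis, EC50 derived.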

Compound	expression of the gene coding for ABCA1 in human macrophages ([1]; at 300 nM)	expression of the gene coding for ABCA1 in human macrophages ([1]; at 1 μm)	EC50 (hPPARdelta)	Emax (hPPARdelta)
CC(C)(Oc1ccc(CCC(OCc2ccccc2)c2ccc(-c3ccc(C(F)(F)F)cc3)s2)c(Cl)c1Cl)C(=O)O (stereo not drawn) [Compound 7, 2-(4-(3-(benzyloxy)-3-(5-(4-(trifluoromethyl)phenyl)thien-2-yl)propyl)-2,3-dichlorophenoxy)-2-methylpropanoic acid]	significant increase			
CC(C)(Oc1ccc(CCC(=O)c2ccc(-c3ccc(C(F)(F)F)cc3)s2)c(Cl)c1Cl)C(=O)O [Compound 2, 2-(2,3-dichloro-4-(3-oxo-3-(5-(4-(trifluoromethyl)phenyl)thien-2-yl)propyl)phenoxy)-2-methylpropanoic acid]		significant increase	7 nM	91%
CC(C)(Oc1ccc(CCC(=O)c2cc(-c3ccc(C(F)(F)F)cc3)cs2)c(Cl)c1Cl)C(=O)O [Compound 11, 2-(2,3-dichloro-4-(3-oxo-3-(4-(4-(trifluoromethyl)phenyl)thien-2-yl)propyl)phenoxy)-2-methylpropanoic acid]			3 nM	105%
CC(C)(Oc1ccc(CCC(O)c2ccc(-c3ccc(C(F)(F)F)cc3)s2)c(Cl)c1Cl)C(=O)O (stereo not drawn) [Compound 4, 2-(2,3-dichloro-4-(3-hydroxy-3-(5-(4-(trifluoromethyl)phenyl)thien-2-yl)propyl)phenoxy)-2-methylpropanoic acid]		significant increase	34 nM	107%
